According to the supplement of paper PMC10883282:
± gives the standard deviation of the averaged measurements.

System: KHOS-240S
Experiment: relative viability vs DMSO control (72 h) (fraction); higher = more viable cells
How it was run: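 Relative viability was measured with ATPLite and expressed as percent growth, averaged across up to triplicate wells. Sarcoma cell lines had been seeded in 384-well plates to reach 80–90% confluence, dosed after 24 h, and incubated 72 h at 37 °C, 5% CO2. All data were rescaled on a scale where 1 is full and 0 is none.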

## C=CC(=O)N1CCC[C@@H](n2nc(-c3ccc(Oc4ccccc4)cc3)c3c(N)ncnc32)C1 [Ibrutinib]
0.00017 µM
  relative viability: 1.03 ± 0.038
0.00051 µM
  relative viability: 1.08 ± 0.064
0.00152 µM
  relative viability: 1.09 ± 0.078
0.00457 µM
  relative viability: 1.09 ± 0.079
0.01372 µM
  relative viability: 1.05 ± 0.054
0.04115 µM
  relative viability: 1.08 ± 0.053
0.1235 µM
  relative viability: 1.05 ± 0.1
0.3704 µM
  relative viability: 1.05 ± 0.081
1.111 µM
  relative viability: 0.979 ± 0.045
3.333 µM
  relative viability: 0.884 ± 0.035
10 µM
  relative viability: 0.587 ± 0.015

## Cn1cnc2c(F)c(Nc3ccc(Br)cc3F)c(C(=O)NOCCO)cc21 [Binimetinib]
0.00017 µM
  relative viability: 1.03 ± 0.053
0.00051 µM
  relative viability: 1.06 ± 0.054
0.00152 µM
  relative viability: 1.07 ± 0.067
0.00457 µM
  relative viability: 1.06 ± 0.052
0.01372 µM
  relative viability: 0.998 ± 0.02
0.04115 µM
  relative viability: 0.975 ± 0.027
0.1235 µM
  relative viability: 0.922 ± 0.04
0.3704 µM
  relative viability: 0.895 ± 0.069
1.111 µM
  relative viability: 0.855 ± 0.0094
3.333 µM
  relative viability: 0.737 ± 0.027
10 µM
  relative viability: 0.637 ± 0.045

## CC1(C)CNc2cc(NC(=O)c3cccnc3NCc3ccncc3)ccc21 [Motesanib]
0.00017 µM
  relative viability: 0.972 ± 0.026
0.00051 µM
  relative viability: 0.982 ± 0.027
0.00152 µM
  relative viability: 0.973 ± 0.03
0.00457 µM
  relative viability: 0.992 ± 0.025
0.01372 µM
  relative viability: 0.983 ± 0.018
0.04115 µM
  relative viability: 0.96 ± 0.023
0.1235 µM
  relative viability: 0.97 ± 0.013
0.3704 µM
  relative viability: 0.931 ± 0.042
1.111 µM
  relative viability: 0.922 ± 0.075
3.333 µM
  relative viability: 0.874 ± 0.066
10 µM
  relative viability: 0.803 ± 0.03

## C[C@@H](c1ccc2nccn2c1)n1nnc2ncc(-c3cnn(C)c3)nc21 [Volitinib]
0.00017 µM
  relative viability: 1.041 ± 0.0092
0.00051 µM
  relative viability: 1.044 ± 0.0082
0.00152 µM
  relative viability: 1.07 ± 0.036
0.00457 µM
  relative viability: 1.07 ± 0.024
0.01372 µM
  relative viability: 1.077 ± 0.006
0.04115 µM
  relative viability: 1.101 ± 0.007
0.1235 µM
  relative viability: 1.09 ± 0.013
0.3704 µM
  relative viability: 1.078 ± 0.0062
1.111 µM
  relative viability: 1.083 ± 0.0058
3.333 µM
  relative viability: 1.049 ± 0.0046
10 µM
  relative viability: 1.05 ± 0.021

## Cc1ccc(NC(=O)c2ccc(CN3CCN(C)CC3)cc2)cc1Nc1nc(-c2cccnc2)cs1 [Masitinib]
0.00017 µM
  relative viability: 1.02 ± 0.03
0.00051 µM
  relative viability: 1.03 ± 0.021
0.00152 µM
  relative viability: 1.04 ± 0.017
0.00457 µM
  relative viability: 1.03 ± 0.011
0.01372 µM
  relative viability: 1.01 ± 0.051
0.04115 µM
  relative viability: 1.01 ± 0.047
0.1235 µM
  relative viability: 0.98133 ± 0.00047
0.3704 µM
  relative viability: 0.862 ± 0.033
1.111 µM
  relative viability: 0.758 ± 0.012
3.333 µM
  relative viability: 0.474 ± 0.028
10 µM
  relative viability: 0.109 ± 0.005

## C=CC(=O)Nc1cccc(Oc2nc(Nc3ccc(N4CCN(C)CC4)cc3)nc3ccsc23)c1 [Olmutinib]
0.00017 µM
  relative viability: 1.01 ± 0.015
0.00051 µM
  relative viability: 1.03 ± 0.014
0.00152 µM
  relative viability: 1.04 ± 0.018
0.00457 µM
  relative viability: 1.02 ± 0.025
0.01372 µM
  relative viability: 1.01 ± 0.024
0.04115 µM
  relative viability: 1.04 ± 0.011
0.1235 µM
  relative viability: 1.03 ± 0.032
0.3704 µM
  relative viability: 0.997 ± 0.04
1.111 µM
  relative viability: 0.998 ± 0.035
3.333 µM
  relative viability: 0.865 ± 0.036
10 µM
  relative viability: 0.39 ± 0.017

## CC(C)(C)c1cc(NC(=O)Nc2ccc(-c3cn4c(n3)sc3cc(OCCN5CCOCC5)ccc34)cc2)no1 [Quizartinib]
0.00017 µM
  relative viability: 1.06 ± 0.037
0.00051 µM
  relative viability: 1.05 ± 0.011
0.00152 µM
  relative viability: 1.05 ± 0.025
0.00457 µM
  relative viability: 1.05 ± 0.02
0.01372 µM
  relative viability: 1.06 ± 0.026
0.04115 µM
  relative viability: 1.049 ± 0.0031
0.1235 µM
  relative viability: 1.03 ± 0.029
0.3704 µM
  relative viability: 1.01 ± 0.027
1.111 µM
  relative viability: 0.994 ± 0.036
3.333 µM
  relative viability: 0.796 ± 0.05
10 µM
  relative viability: 0.7219 ± 0.0064

## CC(C)NC(=O)C1CCC(n2c(NC(=O)c3ccc(F)cc3)nc3ccc(CN4CCC(C(C)(C)O)CC4)cc32)CC1 (stereo unspecified) [Belizatinib]
0.00017 µM
  relative viability: 1.07 ± 0.02
0.00051 µM
  relative viability: 1.06 ± 0.012
0.00152 µM
  relative viability: 1.07 ± 0.043
0.00457 µM
  relative viability: 1.08 ± 0.013
0.01372 µM
  relative viability: 1.08 ± 0.041
0.04115 µM
  relative viability: 1.06 ± 0.033
0.1235 µM
  relative viability: 1.06 ± 0.034
0.3704 µM
  relative viability: 0.923 ± 0.02
1.111 µM
  relative viability: 0.713 ± 0.038
3.333 µM
  relative viability: 0.399 ± 0.0041
10 µM
  relative viability: 0.189 ± 0.0089

## Cc1ccc(F)c(NC(=O)Nc2ccc(-c3cccc4[nH]nc(N)c34)cc2)c1 [Linifanib]
0.00017 µM
  relative viability: 1.06 ± 0.02
0.00051 µM
  relative viability: 1.08 ± 0.08
0.00152 µM
  relative viability: 1.059 ± 0.0094
0.00457 µM
  relative viability: 1.07 ± 0.031
0.01372 µM
  relative viability: 1.05 ± 0.029
0.04115 µM
  relative viability: 1.08 ± 0.041
0.1235 µM
  relative viability: 1.03 ± 0.049
0.3704 µM
  relative viability: 1.04 ± 0.054
1.111 µM
  relative viability: 1.06 ± 0.043
3.333 µM
  relative viability: 1.04 ± 0.011
10 µM
  relative viability: 0.999 ± 0.054

## Cc1nc(NC(=O)N2CCC[C@H]2C(N)=O)sc1-c1ccnc(C(C)(C)C(F)(F)F)c1 [Alpelisib]
0.00017 µM
  relative viability: 1.05 ± 0.071
0.00051 µM
  relative viability: 1.07 ± 0.02
0.00152 µM
  relative viability: 1.03 ± 0.054
0.00457 µM
  relative viability: 1.05 ± 0.054
0.01372 µM
  relative viability: 1.02 ± 0.061
0.04115 µM
  relative viability: 1.01 ± 0.048
0.1235 µM
  relative viability: 0.914 ± 0.055
0.3704 µM
  relative viability: 0.907 ± 0.039
1.111 µM
  relative viability: 0.825 ± 0.065
3.333 µM
  relative viability: 0.791 ± 0.04
10 µM
  relative viability: 0.697 ± 0.054

## C[C@]1(O)C[C@@H](c2nc(-c3ccc4ccc(-c5ccccc5)nc4c3)c3c(N)nccn32)C1 [Linsitinib]
0.00017 µM
  relative viability: 1.08 ± 0.029
0.00051 µM
  relative viability: 1.1 ± 0.054
0.00152 µM
  relative viability: 1.08 ± 0.026
0.00457 µM
  relative viability: 1.07 ± 0.045
0.01372 µM
  relative viability: 1.07 ± 0.025
0.04115 µM
  relative viability: 1.07 ± 0.048
0.1235 µM
  relative viability: 0.992 ± 0.018
0.3704 µM
  relative viability: 0.917 ± 0.018
1.111 µM
  relative viability: 0.911 ± 0.026
3.333 µM
  relative viability: 0.845 ± 0.036
10 µM
  relative viability: 0.56 ± 0.0069

## C=CC(=O)N1CCC([C@@H]2CCNc3c(C(N)=O)c(-c4ccc(Oc5ccccc5)cc4)nn32)CC1 [Zanubrutinib]
0.00017 µM
  relative viability: 0.952 ± 0.026
0.00051 µM
  relative viability: 0.946 ± 0.032
0.00152 µM
  relative viability: 0.962 ± 0.02
0.00457 µM
  relative viability: 0.9655 ± 0.007
0.01372 µM
  relative viability: 0.936 ± 0.043
0.04115 µM
  relative viability: 0.962 ± 0.021
0.1235 µM
  relative viability: 0.957 ± 0.022
0.3704 µM
  relative viability: 0.935 ± 0.037
1.111 µM
  relative viability: 0.901 ± 0.047
3.333 µM
  relative viability: 0.85 ± 0.065
10 µM
  relative viability: 0.839 ± 0.019

## CCc1cc2c(cc1N1CCC(N3CCOCC3)CC1)C(C)(C)c1[nH]c3cc(C#N)ccc3c1C2=O [Alectinib]
0.00017 µM
  relative viability: 1.06 ± 0.048
0.00051 µM
  relative viability: 1.09 ± 0.075
0.00152 µM
  relative viability: 1.09 ± 0.064
0.00457 µM
  relative viability: 1.08 ± 0.066
0.01372 µM
  relative viability: 1.06 ± 0.072
0.04115 µM
  relative viability: 1.07 ± 0.069
0.1235 µM
  relative viability: 1.05 ± 0.074
0.3704 µM
  relative viability: 0.998 ± 0.079
1.111 µM
  relative viability: 0.996 ± 0.063
3.333 µM
  relative viability: 0.984 ± 0.054
10 µM
  relative viability: 0.971 ± 0.073

## C[C@@H]1CCN(C(=O)CC#N)C[C@@H]1N(C)c1ncnc2[nH]ccc12 [Tofacitinib]
0.00017 µM
  relative viability: 1.08 ± 0.068
0.00051 µM
  relative viability: 1.05 ± 0.038
0.00152 µM
  relative viability: 1.08 ± 0.062
0.00457 µM
  relative viability: 1.09 ± 0.069
0.01372 µM
  relative viability: 1.05 ± 0.031
0.04115 µM
  relative viability: 1.05 ± 0.034
0.1235 µM
  relative viability: 1.06 ± 0.08
0.3704 µM
  relative viability: 1.03 ± 0.043
1.111 µM
  relative viability: 1.01 ± 0.076
3.333 µM
  relative viability: 0.977 ± 0.021
10 µM
  relative viability: 0.853 ± 0.075

## CC[C@H](Nc1ncnc2[nH]cnc12)c1nc2cccc(F)c2c(=O)n1-c1ccccc1 [Idelalisib]
0.00017 µM
  relative viability: 1.1 ± 0.062
0.00051 µM
  relative viability: 1.11 ± 0.064
0.00152 µM
  relative viability: 1.11 ± 0.056
0.00457 µM
  relative viability: 1.1 ± 0.065
0.01372 µM
  relative viability: 1.09 ± 0.071
0.04115 µM
  relative viability: 1.08 ± 0.068
0.1235 µM
  relative viability: 1.08 ± 0.051
0.3704 µM
  relative viability: 1.06 ± 0.078
1.111 µM
  relative viability: 1.03 ± 0.058
3.333 µM
  relative viability: 0.942 ± 0.074
10 µM
  relative viability: 0.901 ± 0.079

## COc1cc2nccc(Oc3ccc(NC(=O)Nc4cc(C)on4)c(Cl)c3)c2cc1OC [Tivozanib]
0.00017 µM
  relative viability: 1.07 ± 0.061
0.00051 µM
  relative viability: 1.07 ± 0.061
0.00152 µM
  relative viability: 1.09 ± 0.071
0.00457 µM
  relative viability: 1.09 ± 0.059
0.01372 µM
  relative viability: 1.08 ± 0.025
0.04115 µM
  relative viability: 1.07 ± 0.041
0.1235 µM
  relative viability: 1.06 ± 0.018
0.3704 µM
  relative viability: 1.045 ± 0.0038
1.111 µM
  relative viability: 1.02 ± 0.042
3.333 µM
  relative viability: 0.908 ± 0.027
10 µM
  relative viability: 0.561 ± 0.02
